Publication doi:10.1101/2025.03.13.643086, “Granzyme-targeting quenched activity-based probes for assessing tumor response to immunotherapy” (bioRxiv, 2025)

Test: Hydrolytic stability of qABPs in media (Cy5 fluorescence over time)
Format: physicochemical
Conditions: cell culture media (10% FBS), 24 h incubation
Protocol: Supplementary Figure 1. E-2B-0B-2Quenching effect and stability of qABP 10. (A) The fluorescence for each probe (10 µM) was measured at Ex/Em: 640/670 nm. (B) The stability of qABP 10 in PBS and different cell culture media (supplemented with 10% FBS) was measured by monitoring the production of Cy5 fluorescence signal over time.
11 CO2- In-gel fluorescence: Cy5
Supplementary Figure 2. (A) Chemical structure of compound 11. (B) hGzmB labeling assay with 11. Recombinant human active GzmB (50 nM) was incubated with 8 or 11 (500 nM) for 1 h.
Protein samples were analyzed by SDS-PAGE and in-gel fluorescence scanning for Cy5 signal.
(1 picture or pasted object on this page, not shown here)
PBS RIPA Myelocult 17 In-gel fluorescence:
Supplementary Figure 8. Activity-based GzmA profiling. (A) Left: Dose-dependent labeling of GzmA with 16 and 17 in NK-92 cell lysates. Middle, Right: GzmA selective labeling in different cell lysates with 17 (Middle) and 16 (Right) (50 nM, 1 h, 37 °C). Briefly, cell lysates were prepared with RIPA lysis buffer, and 20 µg of proteins were incubated with 50 nM of 16 or 17 for 1 h at 37 °C and analyzed by SDS-PAGE. […]
dependent in situ labeling of GzmA in NK-92 cells with 14-17 (2 h, 37 °C). […] After denaturing with 4X SDS-reducing buffer, 20 µg of proteins were analyzed by SDS-PAGE and in-gel fluorescence scanning for Cy5 signal. […]

CC[C@H](C)[C@H](NC(=O)CCCCCN1/C(=C/C=C/C=C/C2=[N+](CC)c3ccc(S(=O)(=O)O)cc3C2(C)C)C(C)(C)c2cc(S(=O)(=O)O)ccc21)C(=O)N[C@@H](CCC(=O)O)C(=O)N1CCC[C@H]1C(=O)NC(CS(=O)(=O)O)P(=O)(Oc1ccc(CCNC(=O)C2CCN(S(=O)(=O)c3ccccc3-c3c4ccc(=[N+]5CCc6ccccc65)cc-4oc4cc(N5CCc6ccccc65)ccc34)CC2)cc1)c1ccccc1 (stereo partly shown) [Compound 10, Cy5-IEPCya^PhP-QSY21]
hydrolyzed product: less than 50%
